# Measurements from ChEMBL document CHEMBL1201862, “PubChem BioAssay data set” (2004).
#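 Values below derive from 48-hour exposures of cells grown in 96-well plates, with endpoints linearly interpolated between the two concentrations bracketing the appropriate inhibition level. Abbreviation: GI50, concentration required for 50% inhibition of growth.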 Activity calls are given as the source filed them. Cut-off read from the data, not from the text of the source: active = GI50 up to about 1.1 µM and inactive = higher.
# Legend:
# Experiment in all cases: NCI-60 cell line screen, 48 h
# CAKI-1 = tested on: CAKI-1
# COLO 205 = tested on: COLO 205
# DU-145 = tested on: DU-145
# HCT-116 = tested on: HCT-116
# HL-60 = tested on: HL-60
# HOP-62 = tested on: HOP-62
# HOP-92 = tested on: HOP-92
# LOX IMVI = tested on: LOX IMVI
# M14 = tested on: M14
# MDA-MB-231 = tested on: MDA-MB-231
# MDA-MB-435 = tested on: MDA-MB-435
# MOLT-4 = tested on: MOLT-4
# OVCAR-5 = tested on: OVCAR-5
# RXF 393 = tested on: RXF 393
# SF-268 = tested on: SF-268
# SF-539 = tested on: SF-539
# SN12C = tested on: SN12C
# SR = tested on: SR
# U-251 = tested on: U-251
# NCI-H460 = tested on: NCI-H460
Structure (SMILES),GI50 (CAKI-1),GI50 (COLO 205),GI50 (DU-145),GI50 (HCT-116),GI50 (HL-60),GI50 (HOP-62),GI50 (HOP-92),GI50 (LOX IMVI),GI50 (M14),GI50 (MDA-MB-231),GI50 (MDA-MB-435),GI50 (MOLT-4),GI50 (OVCAR-5),GI50 (RXF 393),GI50 (SF-268),GI50 (SF-539),GI50 (SN12C),GI50 (SR),GI50 (U-251),GI50 (NCI-H460)
O=C1/C(=C\Oc2ccc(F)cc2)N2CCC1CC2,84.9 µM (inactive),> 100 µM (inactive),0.544 µM (active),34.8 µM (inactive),35.2 µM (inactive),> 100 µM (inactive),41.4 µM (inactive),25.7 µM (inactive),> 100 µM (inactive),80.5 µM (inactive),40.5 µM (inactive),34.1 µM (inactive),> 100 µM (inactive),25.1 µM (inactive),89.5 µM (inactive),> 100 µM (inactive),94.6 µM (inactive),16.4 µM (inactive),77.1 µM (inactive),
O=C(CCNC(=O)OCc1ccccc1)OCCCNC(=O)OCc1ccccc1,,> 100 µM (inactive),> 100 µM (inactive),> 100 µM (inactive),> 100 µM (inactive),> 100 µM (inactive),> 100 µM (inactive),> 100 µM (inactive),> 100 µM (inactive),> 100 µM (inactive),> 100 µM (inactive),> 100 µM (inactive),> 100 µM (inactive),> 100 µM (inactive),> 100 µM (inactive),> 100 µM (inactive),> 100 µM (inactive),> 100 µM (inactive),> 100 µM (inactive),> 100 µM (inactive)
OCc1cccc(Nc2nc(O)c3[nH]cnc3n2)c1,> 100 µM (inactive),> 100 µM (inactive),> 100 µM (inactive),> 100 µM (inactive),> 100 µM (inactive),> 100 µM (inactive),> 100 µM (inactive),> 100 µM (inactive),> 100 µM (inactive),> 100 µM (inactive),> 100 µM (inactive),> 100 µM (inactive),> 100 µM (inactive),> 100 µM (inactive),> 100 µM (inactive),> 100 µM (inactive),> 100 µM (inactive),> 100 µM (inactive),> 100 µM (inactive),
CCOC(=O)C(NC(=O)c1ccco1)(Nc1nc2ccc(OCC)cc2s1)C(F)(F)F (stereo not given),17.3 µM (inactive),18.5 µM (inactive),55.3 µM (inactive),27.3 µM (inactive),> 100 µM (inactive),,15 µM (inactive),,32.6 µM (inactive),55.3 µM (inactive),24.4 µM (inactive),20.1 µM (inactive),34.1 µM (inactive),7.82 µM (inactive),41.2 µM (inactive),43.2 µM (inactive),37.9 µM (inactive),19.3 µM (inactive),35.2 µM (inactive),28.1 µM (inactive)
C/C1=C\CC[C@@]2(C)O[C@@H]2C[C@@H]2[C@H](C/C(C)=C/CC1)OC(=O)C21CC1,> 100 µM (inactive),> 100 µM (inactive),59.7 µM (inactive),35 µM (inactive),24.2 µM (inactive),> 100 µM (inactive),,,> 100 µM (inactive),> 100 µM (inactive),41.5 µM (inactive),21.7 µM (inactive),> 100 µM (inactive),> 100 µM (inactive),> 100 µM (inactive),> 100 µM (inactive),60.3 µM (inactive),12.7 µM (inactive),28.8 µM (inactive),56.8 µM (inactive)
CC(=O)c1c(-c2ccc(Cl)cc2)c(C#N)c(=S)n(C2OC(CO)C(O)C(O)C2O)c1C (stereo not given),,32.5 µM (inactive),> 100 µM (inactive),47 µM (inactive),26.9 µM (inactive),65 µM (inactive),13.1 µM (inactive),30.1 µM (inactive),57.7 µM (inactive),37 µM (inactive),37.8 µM (inactive),21.6 µM (inactive),> 100 µM (inactive),98.2 µM (inactive),53.3 µM (inactive),46.7 µM (inactive),52.6 µM (inactive),30.3 µM (inactive),36.8 µM (inactive),37 µM (inactive)
C=C1CC(Cn2cc(Br)c(=O)[nH]c2=O)(c2ccc(Br)cc2)OC1=O (stereo not given),2.38 µM (inactive),1.53 µM (inactive),5.65 µM (inactive),1.36 µM (inactive),0.621 µM (active),14.5 µM (inactive),1.33 µM (inactive),1.58 µM (inactive),1.59 µM (inactive),4.47 µM (inactive),2.88 µM (inactive),1.79 µM (inactive),6.38 µM (inactive),,13.6 µM (inactive),6.44 µM (inactive),6.81 µM (inactive),1.52 µM (inactive),13.3 µM (inactive),14.1 µM (inactive)
c1ccc(NCCSc2nc3ccccc3s2)cc1,93.1 µM (inactive),22.4 µM (inactive),97.1 µM (inactive),37.3 µM (inactive),32.1 µM (inactive),> 100 µM (inactive),41.1 µM (inactive),45.5 µM (inactive),44.7 µM (inactive),29.4 µM (inactive),43.3 µM (inactive),24.9 µM (inactive),54 µM (inactive),55.7 µM (inactive),> 100 µM (inactive),,46.1 µM (inactive),39.7 µM (inactive),52.8 µM (inactive),30.9 µM (inactive)
COc1cc(/C=C/c2nc(NC(=S)Nc3ccccc3)nnc2C)cc(OC)c1OC,29.1 µM (inactive),15.5 µM (inactive),34 µM (inactive),24.7 µM (inactive),8.3 µM (inactive),35.2 µM (inactive),53.7 µM (inactive),37.2 µM (inactive),21.4 µM (inactive),33 µM (inactive),38.4 µM (inactive),25 µM (inactive),31.6 µM (inactive),23.6 µM (inactive),27.4 µM (inactive),,39.1 µM (inactive),12.4 µM (inactive),31 µM (inactive),15.7 µM (inactive)
CC(C)[C@H]1NC(=O)[C@H]2N=C(O[C@@H]2C)[C@@H]2CCCN2C(=O)[C@H](Cc2ccccc2)NC(=O)[C@@H]2CSC(=N2)[C@@H](Cc2ccccc2)NC(=O)[C@@H]2CSC1=N2,> 100 µM (inactive),> 100 µM (inactive),> 100 µM (inactive),90.8 µM (inactive),> 100 µM (inactive),> 100 µM (inactive),,75.3 µM (inactive),> 100 µM (inactive),> 100 µM (inactive),52.8 µM (inactive),75.7 µM (inactive),> 100 µM (inactive),61.4 µM (inactive),> 100 µM (inactive),> 100 µM (inactive),> 100 µM (inactive),> 100 µM (inactive),> 100 µM (inactive),
CC(=O)Oc1ccc2c3c1[C@H]1O[C@H]1c1cccc(c1-3)[C@@H]1O[C@H]21,3.22 µM (inactive),10.4 µM (inactive),7.83 µM (inactive),11.2 µM (inactive),1.82 µM (inactive),5.19 µM (inactive),9.68 µM (inactive),1.81 µM (inactive),4.81 µM (inactive),12.8 µM (inactive),2.04 µM (inactive),18.5 µM (inactive),14.8 µM (inactive),0.409 µM (active),5.62 µM (inactive),,2.69 µM (inactive),10.9 µM (inactive),4.99 µM (inactive),
